Measured values as given in paper doi:10.1101/208439v1 (biorxiv, 2017).
Substitutions are numbered along the chain they refer to. Where two headings read alike, the source gives them in different places.

Tests used:
NSD2 [1] = molecular target: T1, NSD2 (Homo sapiens, UniProt O96028, T1150A); assay: biochemical; parameters: MTase-Glo bioluminescence methyltransferase assay, full-length NSD2 with HeLa nucleosomes; conditions: read-out: MTase-Glo IC50
T1 construct: full length (residues 2-1365), N-terminal His tag, insect cell/baculovirus
T1 sequence (O96028 2-1365 T1150A): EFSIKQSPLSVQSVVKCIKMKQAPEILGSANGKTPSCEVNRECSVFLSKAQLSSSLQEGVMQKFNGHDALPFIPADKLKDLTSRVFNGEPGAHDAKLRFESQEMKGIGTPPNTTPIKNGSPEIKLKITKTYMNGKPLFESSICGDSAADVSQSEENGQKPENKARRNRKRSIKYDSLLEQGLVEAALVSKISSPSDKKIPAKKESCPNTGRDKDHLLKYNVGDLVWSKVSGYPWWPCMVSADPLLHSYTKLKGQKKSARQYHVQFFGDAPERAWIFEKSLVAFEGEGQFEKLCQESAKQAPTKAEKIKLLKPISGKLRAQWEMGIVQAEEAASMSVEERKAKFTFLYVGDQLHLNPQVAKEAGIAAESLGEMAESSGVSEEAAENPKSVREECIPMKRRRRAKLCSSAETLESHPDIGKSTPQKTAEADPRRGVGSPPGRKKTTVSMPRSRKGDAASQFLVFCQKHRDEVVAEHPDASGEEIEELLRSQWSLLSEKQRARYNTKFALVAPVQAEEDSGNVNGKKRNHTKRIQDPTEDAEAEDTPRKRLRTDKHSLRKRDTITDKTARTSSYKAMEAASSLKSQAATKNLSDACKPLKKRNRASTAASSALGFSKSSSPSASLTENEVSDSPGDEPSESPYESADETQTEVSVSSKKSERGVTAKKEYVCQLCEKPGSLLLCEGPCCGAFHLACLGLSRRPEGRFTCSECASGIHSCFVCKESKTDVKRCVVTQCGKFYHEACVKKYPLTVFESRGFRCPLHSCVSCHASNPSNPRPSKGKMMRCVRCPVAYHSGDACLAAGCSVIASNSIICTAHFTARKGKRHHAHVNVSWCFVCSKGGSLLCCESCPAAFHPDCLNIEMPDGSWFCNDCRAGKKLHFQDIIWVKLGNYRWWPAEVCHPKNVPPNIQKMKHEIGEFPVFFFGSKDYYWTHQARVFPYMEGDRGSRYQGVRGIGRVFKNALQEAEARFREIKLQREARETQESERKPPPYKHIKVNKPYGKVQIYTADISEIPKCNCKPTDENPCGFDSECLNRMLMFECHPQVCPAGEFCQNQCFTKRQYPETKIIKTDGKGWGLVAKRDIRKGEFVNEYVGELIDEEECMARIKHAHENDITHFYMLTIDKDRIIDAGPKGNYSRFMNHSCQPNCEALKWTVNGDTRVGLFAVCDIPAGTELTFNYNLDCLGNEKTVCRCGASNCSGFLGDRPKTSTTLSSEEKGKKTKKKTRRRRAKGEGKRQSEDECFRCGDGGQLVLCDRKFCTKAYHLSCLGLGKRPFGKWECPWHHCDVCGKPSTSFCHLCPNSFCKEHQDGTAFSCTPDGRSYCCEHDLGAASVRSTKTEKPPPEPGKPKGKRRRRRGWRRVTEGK
Excerpt: (§1) A major challenge in screening for small molecule inhibitors is that native NSD2 requires nucleosomes as a substrate ([17]). […] Chemical libraries were screened in 3-dose point quantitative high-throughput screening (qHTS) format ([43]) with the Methyltransferase-Glo (MTase-Glo™) methyltransferase bioluminescence assay ([44]). A number of counter and orthogonal assays were also developed to characterize the hits from the primary screen. Confirmed hits were validated with a radiolabeled SAM substrate-based NSD2 activity assay and further interrogated with binding studies by surface plasmon resonance (SPR), methyltransferase profiling, and activity assessments in U-2 OS cells. […] Overall the reaction conditions were very similar.

NSD2 [2] = molecular target: T2, NSD2 (Homo sapiens, UniProt O96028, E1099K); assay: biochemical; parameters: MTase-Glo bioluminescence methyltransferase assay, full-length NSD2 with HeLa nucleosomes; conditions: read-out: MTase-Glo IC50
T2 construct: full length (residues 2-1365), N-terminal His tag, insect cell/baculovirus
T2 sequence (O96028 2-1365 E1099K): T1 sequence (O96028 2-1365 T1150A) with E1098K, A1149T
Excerpt: as §1

CC1(C)CCC(CN2CCN(c3ccc(C(=O)NS(=O)(=O)c4ccc(NCC5CCOCC5)c([N+](=O)[O-])c4)c(Oc4cnc5[nH]ccc5c4)c3)CC2)=C(c2ccc(Cl)cc2)C1 [ABT-199]
IC50 (NSD2 [1]): 15 µM | IC50 (NSD2 [2]): 15 µM

O=C1C(Cl)=C(NCCN2CCOCC2)C(=O)c2ncccc21 [DA3003-1]
IC50 (NSD2 [1]; inhibitor): 2.9 µM | IC50 (NSD2 [2]; inhibitor): 2.8 µM
